Assay results published in patent US20090203064A1, “METHOD AND DEVICE FOR MONITORING PLATELET FUNCTION” (PLACOR INC., priority 2002, published 2009).

System: platelet function
Experiment: Platelet plug formation time of arterial blood from pigs receiving platelet inhibitors (wire-in-tube device)
Format: in vivo
Experimental: Pigs were placed on various platelet inhibitors and then the platelet function of the pigs was monitored. Twenty-five pigs received 300 mg aspirin daily for seven days. Ten pigs received 300 mg ticlopidine (an ADP inhibitor) daily. Ten pigs received a combination of 300 mg aspirin and 300 mg ticlopidine daily. Twenty microliters of blood were drawn into the lumen of the tube at a rate of 1.0 microliter per second. The wire was 0.016 inches in diameter and the inner diameter of the tube was 0.034 inches in diameter. Blood (20 μl) was delivered via a three-way flow divider (a Touhy-Borst Connector) into a TEFLON tube 2 inches long with a stainless steel wire […] in diameter inserted through the tube and extending about three-fourths of the length of the tube. The wire was held in place at the end of the tube. The tube was coupled to a Hamilton syringe pump and to a HP blood pressure transducer for measuring the pressure in the tube. The platelet plug formation time was determined as damping of the blood pressure signal.

| SMILES | Mean platelet plug time (300 mg aspirin daily, after 3 days) | Mean platelet plug time (300 mg aspirin daily, after 7 days) | Mean platelet plug time (300 mg ticlopidine daily, after 3 days) [min] | Mean platelet plug time (300 mg ticlopidine daily, after 7 days) [min] |
| --- | --- | --- | --- | --- |
| CC(=O)Oc1ccccc1C(=O)O [aspirin] | 3.9 (± 0.25) minutes | 4.6 (± 0.42) minutes | – | – |
| Clc1ccccc1CN1CCc2sccc2C1 [ticlopidine] | – | – | 5.67 | 6.21 |
